# Test results published in patent US20110251238A1, “PPAR AGONIST COMPOSITIONS AND METHODS OF USE” (BIOPHARMED, priority 2008, published 2011).
# Experiments:
# [1] = test system: caspases 3/7; assay: Caspases 3/7 activation in HL60 cells (DEVD reagent); assay type: cell-based, human; details: 48 hours
# Description: (§1) 7223, using standard commercially available diagnostic kits (Calbiochem, USA). Assay reagents used were DEVD for caspases 3/7, […] for caspases 8, and LEHD for caspases 9. Moreover, colchicine was used as reference compound that induces this activity of caspases.
# [2] = test system: caspases 9; assay: Caspases 9 activation in HL60 cells (LEHD reagent); assay type: cell-based, human; details: 48 hours, 1 μM, 0.1 μM and 0.01 μM
# Description: as §1
# [3] = test system: A549 (human lung adenocarcinoma epithelial); assay: Growth inhibition, MTT colorimetric assay, A549; assay type: cell-based; details: Homo sapiens, A549, 72 h; carcinoma; 3 days with drug; means of six values; unit inferred; read-out: IC50 A549
# Method in brief: (§2)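 Human tumour cell lines were exposed to compounds for 3 days. Proliferation inhibition was read by MTT colorimetric assay and expressed as IC50. Values are means of six determinations.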
# [4] = test system: LoVo (colon cancer); assay: Growth inhibition, MTT colorimetric assay, LoVo; assay type: cell-based; details: Homo sapiens, LoVo, 72 h; carcinoma; 3 days with drug; means of six values; unit inferred; read-out: IC50 LoVo
# Method in brief: as §2
# [5] = test system: PC3 (human prostate cancer); assay: Growth inhibition, MTT colorimetric assay, PC3; assay type: cell-based; details: Homo sapiens, 72 h; carcinoma; 3 days with drug; means of six values; unit inferred; read-out: IC50 PC3
# Method in brief: (§3)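 MTT colorimetric measurement of proliferation gives the IC50, averaged from six separate values. Drug exposure lasted 3 days.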
# [6] = test system: U373 (human glioblastoma-astrocytoma); assay: Growth inhibition, MTT colorimetric assay, U373; assay type: cell-based; details: Homo sapiens, U373 MG, 72 h; glioma; 3 days with drug; means of six values; unit inferred; read-out: IC50 U373
# Method in brief: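 Growth inhibition: cells cultured with drug 3 days, then MTT colorimetric readout. Cytotoxic activity given as IC50.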
# [7] = test system: GL19; assay: Growth inhibition, MTT colorimetric assay, GL19; assay type: cell-based; details: GL19, 72 h; 3 days with drug; means of six values; unit inferred; read-out: IC50 GL19
# Method in brief: as §3
# [8] = test system: RhTP (rhabdomyosarcoma); assay: Growth inhibition, MTT colorimetric assay, RhTp; assay type: cell-based; details: 72 h; 3 days with drug; means of six values; unit inferred; read-out: IC50 RhTp
# Method in brief: as §3
# [9] = test system: KaKa; assay: Growth inhibition, MTT colorimetric assay, KaKa; assay type: cell-based; details: 72 h; 3 days with drug; means of six values; unit inferred; read-out: IC50 KaKa
# Method in brief: as §3
# [10] = test system: SKMEL28 (human melanoma); assay: Growth inhibition, MTT colorimetric assay, SKMEL-28; assay type: cell-based; details: Homo sapiens, SK-MEL-28, 72 h; melanoma; 3 days with drug; means of six values; unit inferred; read-out: IC50 SKMEL-28
# Method in brief: as §3
# [11] = test system: orthotopic grafts of human glioblastoma cell lines; assay: Orthotopic grafts of human glioblastoma cell lines in brains of nude mice, survival; assay type: in vivo; details: FIG. 1
# Experimental: Additional in vivo experiments were carried on nude mice. Briefly, orthotopic grafts of human glioblastoma cell lines were implanted into the brains of nude mice according to the general methodology of Branle et al., (2002) Cancer, 95, 641-655) and Lefranc et al., (2004) Clin. Can. Res., 10, 8250-8265. […] Results are shown in FIG. 1, illustrating the comparative activity of the PPAR agonist BPM18,708 and the reference drug Temodar™ (temozolomide) the only FDA approved drug for glioblastoma grade IV.
# [12] = test system: bloodstream forms of T. brucei and T. congolense; assay: Trypanocidal activity in vitro, Alamar Blue assay; assay type: cell-based, Trypanosoma brucei and T. congolense; details: 48 h total incubation
# Method in brief: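 Bloodstream-form trypanosomes exposed to compounds in H2O for 24 h, then Alamar Blue added for a further 24 h (48 h total). Absorbance read at 550 nm with 630 nm reference; duplicate wells, three repeats. HL-60 cytotoxicity run alongside: 43 h plus 5 h dye.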
smiles,measurement,setting,value
"Oc1ccc(CN(Cc2ccc(C(F)(F)F)cc2)Cc2ccc(O)c3ncccc23)c2cccnc12 [BPM18,708, 5,5′-(4-(trifluoromethyl)benzylazanediyl)bis(methylene)diquinolin-8-ol]",activation of caspases 3/7,[1]; 0.01 μM,"neither BPM18,708 nor BPM19,107 has an effect"
same,activation of caspases 3/7,[1]; 0.1 μM,strong effect
same,activation of caspases 3/7,[1]; 1 μM,strong effect
same,activation of caspases 9,[2],no effect
same,IC50,[3],8 nM
same,IC50,[4],10 nM
same,IC50,[5],66 nM
same,IC50,[6],44 nM
same,IC50,[7],1240 nM
same,IC50,[8],81 nM
same,IC50,[9],1580 nM
same,IC50,[10],> 10000 nM
same,in vivo activity (survival) compared with Temodar,[11],at least as active as Temodar™
same,GI50,"[12]; 50% growth inhibition, read-out: GI50",310 ± 10 nM
same,MIC,"[12]; lowest concentration at which all cells were killed, read-out: MIC",1 µM
